Tests used:
[1] = Hypoxic Survival Test in mice; assay type: in vivo, Royal Hart mice; conditions: survival after 5 minutes; for % Survivors: 30 min before hypoxia
Procedure: A useful in vivo test that measures how effectively central nervous system-acting drugs enhance survival in a hypoxic environment, presumably by improving the ratio of energy supply to demand is known as the Hypoxic Survival Test. […] Drugs are tested by intraperitoneally injecting groups of mice 30 minutes prior to placing them in a hypoxic mixture and measuring survival. The rationale of this test is that drugs which enhance survival under hypoxic conditions without concomitant, depression or sedative side effects, may do so by enhancing energy metabolism, or by preserving normal brain function under conditions of reduced energy metabolism. Given the dependence of the brain on a constant supply of energy, drugs which have this property may have many far-reaching therapeutic indications, including recovery from stroke and closed head injury, as well as reducing the deleterious effects of the aging central nervous system.
Groups of 20 Royal Hart mice (6 weeks of age) are injected intraperitoneally with test compound (1-200 mg/kg) 30 minutes prior to placing them in a hypoxic mixture (10% oxygen in 90% […]) and measuring survival after 5 minutes.
A separate group of 20 mice is injected intraperitoneally with saline solution (0.01 cc/g of body weight) and processed as described above.
Still another group of 20 mice is injected intraperitoneally with 0.125 mg/kg of physostigmine and processed as described above.

[2] = Passive Avoidance Anoxic Induced Amnesia Test in mice; assay type: in vivo, Swiss-Webster mice; conditions: vs saline control, 30% considered active
Description: Another in vivo test associated with decreased neural function in mammals is the Passive Avoidance Anoxic Induced Amnesia Test. This test is used to determine the attenuation of anoxic induced amnesia in mice treated with drug, as compared to saline treated control animals with no drug.
A shock-motivated, single trial, step-through passive avoidance procedure is used. Groups of 25 Swiss-Webster, middle-aged mice (9 months of age) are placed singly in the front chamber of a 2-chamber box and are allowed to voluntarily cross into the rear chamber. As soon as the mouse enters the rear chamber, a door automatically traps the animal and a mild electric shock (0.4 mA for 4 seconds) is delivered to its feet. Following the foot shock, the mice are initially placed in an anoxic environment (0% oxygen) for 12 seconds, which quickly induces unconsciousness. They are then placed in an hypoxic environment (15% oxygen) for four minutes which prolongs the oxygen deprived state, maintaining unconsciousness. All testing is performed 24 hours later, and in all cases the mice appear fully recovered from the previous anoxic/hypoxic treatment. All test compounds are administered intraperitoneally at a dose of 10-200 mg/kg, 30 minutes prior to training and testing. Control animals are injected intraperitoneally only with saline at 0.01 cc/g of body weight.
The latency to enter the rear chamber is recorded for both training and testing. Presumably, the more the animal remembers being shocked, the greater it will inhibit going into the rear chamber and the higher will be its latency to re-enter. An improvement of 30% over saline control scores is considered active.

[3] = system: brain-specific receptors of rats (3H-benzodiazepine binding); test: Inhibition of the binding of 3H-benzodiazepine to brain-specific receptors of rats; design: species or system rat (Wistar strain); conditions: rat cortex P2 fraction; 3H-diazepam 1.5 nM or 3H-flunitrazepam 1.0 nM; test concentration not given; 12% or more is active
Description: A test utilized for the determination of anxiolytic activity is the measurement of the ability of test compounds to inhibit the binding of tritiated benzodiazepines to brain-specific receptors of warm-blooded animals. A modification of the method described by R. F. Squires, et al., Nature, 266, No. 21, pg 732 (Apr. 1977) and H. Mohler, et al., Science, 198, pg 849 (1977) was employed.
Male albino rats (Wistar strain, weighing 150-200 g each) were used. The test compounds were solubilized in either dimethylformamide, acetic acid, ethanol or hydrochloric acid.
Whole cortex of rats was homogenized gently in 20 volumes of ice-cold 0.32 M sucrose, centrifuged twice at 1000 g for 10 minutes and then recentrifuged at 30,000 g for 20 minutes to produce a crude P2 -synaptosomal fraction. The P2 -fraction was either: (1) resuspended in twice the original volume in hypotonic 50 mM Tris.HCl (pH 7.4), or (2) resuspended in one-half the original volume in hypotonic 10 mM Tris.HCl (pH 7.4) and frozen (-20° C.) until time of use. Frozen P2 preparations were thawed and resuspended in four times the original homogenizing volume at time of assay.
The binding assay consisted of 300 μl of the P2 -fraction suspension (0.2-0.4 mg protein), 100 μl of test drug and 100 μl of ^3 H-diazepam (1.5 nM, final concentration) or ^3 H-flunitrazepam (1.0 nM, final concentration) which was added to 1.5 ml of 50 mM Tris.HCl (pH 7.4). Non-specific binding controls and total binding controls received 100 μl of diazepam (3 μM final concentration) and 100 μl of deionized water, respectively, in place of the test compound. Incubation for 30 minutes proceeded in ice and was terminated by filtration, under vacuum, through glass fiber filters. […] After drying at 50°-60° C. for 30 minutes, 10 ml of diluent was added and the radioactivity determined in a scintillation counter.
Inhibition of binding was calculated by the difference between total binding and binding in the presence of test compound, divided by the total binding, X 100. […]

[4] = Reduction of mean arterial blood pressure in spontaneously hypertensive rats; assay type: in vivo, spontaneously hypertensive rats of the Okamoto strain; conditions: gavage, 100 mg/kg or less, two doses 24 h apart, measured at 28 hours; average mean arterial blood pressure of the rats 160 mm Hg
Procedure: Certain of the novel compounds of the present invention are active hypotensive agents at non-toxic doses when administered to mammals. These compounds were tested for hypotensive activity by the method of P. S. Chan and D. Poorvin, Clinical and Experimental Hypertension, 1 (6), 817-830 (1979). Male, 16 week old, spontaneously hypertensive rats of the Okamoto strain having an average mean arterial blood pressure of 160+1.5 mm of mercury are used in the test. One to 3 rats are used per test compound. A rat is dosed by gavage with a test compound, suspended in 2% pre-boiled starch at a concentration of 50 mg/ml, at a dose of 100 mg/kg of body weight or less, with 0.9% sodium chloride loading at a dose of 25 ml/kg of body weight. A second identical dose of the test compound, without sodium chloride loading is given 24 hours later. At 28 hours after the initial dose the mean arterial blood pressure is measured by the method of Chan and Poorvin vide supra. The procedure is repeated in a second and third rat when necessary.

## O=c1[nH]c(=O)n2c3c1ncn3C(c1cccc([N+](=O)[O-])c1)=CC2 [4-(3-Nitrophenyl)-6H,8H-pyrimido[1,2,3-cd]purine-8,10(9H)-dione]
[1]; 200 mg/kg i.p.
  % Survivors: 47%

## O=c1[nH]c(=O)n2c3c1ncn3C(c1cccc(C(F)(F)F)c1)=CC2 [4-[3-(Trifluoromethyl)phenyl]-6H,8H-pyrimido[1,2,3-cd]purine-8,10(9H)-dione]
[2]; 50 mg/kg i.p.
  % Improvement: 144%
[2]; 100 mg/kg i.p.
  % Improvement: 44%
[3]
  % Inhibition of the binding of 3H-benzodiazepine: 54%

## O=c1[nH]c(=O)n2c3c1ncn3C(c1ccc(N3CCOCC3)cc1)=CC2 [4-[4-(4-Morpholinyl)phenyl]-6H,8H-pyrimido[1,2,3-cd]purine-8,10(9H)-dione]
[1]; 100 mg/kg i.p.
  % Survivors: 55%
[2]; 25 mg/kg i.p.
  % Improvement: 34%

## CCn1c(=O)c2ncn3c2n(c1=O)CC=C3c1cccc(C(F)(F)F)c1 [9-Ethyl-4-[3-(trifluoromethyl)phenyl]-6H,8H-pyrimido[1,2,3-cd]purine-8,10(9H)-dione]
[3]
  % Inhibition of the binding of 3H-benzodiazepine: 17%

## Cn1c(=O)c2ncn3c2n(c1=O)CC=C3c1cccc(C(F)(F)F)c1 [9-Methyl-4-[3-(trifluoromethyl)phenyl]-6H,8H-pyrimido[1,2,3-cd]purine-8,10(9H)-dione]
[2]; 10 mg/kg i.p.
  % Improvement: 66%
[2]; 25 mg/kg i.p.
  % Improvement: 69%
[2]; 50 mg/kg i.p.
  % Improvement: 56%
[2]; 100 mg/kg i.p.
  % Improvement: 39%

## CNC(=O)Oc1ccc2c(c1)[C@]1(C)CCN(C)[C@@H]1N2C [physostigmine, reference compound]
[1]; 10% oxygen, 0.125 mg/kg i.p., saline controls 5-20%
  physostigmine treated mice surviving: 60-80%

## CSc1nc(=O)c2ncn3c2n1CC=C3c1ccccc1 [8-(Methylthio)-4-phenyl-6H,10H-pyrimido[1,2-cd]-purin-10-one]
[3]
  % Inhibition of the binding of 3H-benzodiazepine: 13%

## O=c1[nH]c(=O)n2c3c1ncn3C(c1cccnc1)=CC2 [4-(3-Pyridinyl)-6H,8H-pyrimido[1,2,3-cd]purine-8,10(9H)-dione]
[4]
  Mean arterial blood pressure: 127 mm Hg

## O=c1[nH]c(=O)n2c3c1ncn3C(c1cccc(Cl)c1)=CC2 [4-(3-Chlorophenyl)-6H,8H-pyrimido[1,2,3-cd]purine-8,10(9H)-dione]
[2]; 25 mg/kg i.p.
  % Improvement: 42%
[2]; 50 mg/kg i.p.
  % Improvement: 43%

## O=c1c2ncn3c2n(c(=O)n1Cc1ccccc1)CC=C3c1cccc(C(F)(F)F)c1 [9-(Phenylmethyl)-4-[3-(trifluoromethyl)phenyl]-6H,8H-pyrimido[1,2,3-cd]purine-8,10(9H)-dione]
[4]
  Mean arterial blood pressure: 132 mm Hg

## Cc1ccc(C2=CCn3c(=O)[nH]c(=O)c4ncn2c43)cc1 [4-(4-Methylphenyl)-6H,8H-pyrimido[1,2,3-cd]purine-8,10(9H)-dione]
[4]
  Mean arterial blood pressure: 127 mm Hg

Reference: patent US4904658A, “Substituted-6H,8H-pyrimido-[1,2,3-cd]purine-8,10-(9H)-diones and substituted-6H,10H-pyrimido[1,2-cd]purin-10-ones” (American Cyanamid Company, priority 1988, dated 1990)
